Source: patent US20260042731A1, “(2,4-DICHLOROPHENOXY)ACETIC ACID ANALOGS” (CORTEVA AGRISCIENCE LLC, priority 2022, published 2026)
Where two headings read alike, the source gives them in different places.

Key:
Format in all cases: in vivo
[1] = test system: Amaranthus rudis (AMATA), tall water hemp; test: Postemergence herbicide evaluation, growth of Amaranthus rudis (AMATA); conditions: Amaranthus tuberculatus, post-emergence, read-out: Ave. AMATA
[2] = test system: Ambrosia artemisiifolia (AMBEL), common ragweed; test: Postemergence herbicide evaluation, growth of Ambrosia artemisiifolia (AMBEL); conditions: Ambrosia artemisiifolia, post-emergence, read-out: AVE. AMBEL
[3] = test system: weeds ABUTH, AMATA, AMBEL, CHEAL, ERICA; test: Postemergence herbicide evaluation, overall average % weed control across ABUTH, AMATA, AMBEL, CHEAL and ERICA; conditions: post-emergence, read-out: Overall Ave % Weed Control
[4] = test system: Abutilon theophrasti (ABUTH), velvetleaf; test: Postemergence herbicide evaluation, growth of Abutilon theophrasti (ABUTH); conditions: Abutilon theophrasti, post-emergence, read-out: AVE. ABUTH
[5] = test system: Chenopodium album (CHEAL), common lambsquarters; test: Postemergence herbicide evaluation, growth of Chenopodium album (CHEAL); conditions: Chenopodium album, post-emergence, read-out: Ave. CHEAL

SMILES: O=C(COc1ccc(Cl)cc1Cl)OCCOCCOCCOCCOC(=O)COc1ccc(Cl)cc1Cl [Compound B14]
- pest or weed control at 280 g/ha ([1]; 168 h): 72.5%
- pest or weed control at 560 g/ha ([1]; 168 h): 90%
- pest or weed control at 280 g/ha ([1]; 336 h): 90%
- pest or weed control at 560 g/ha ([1]; 336 h): 96%
- pest or weed control at 280 g/ha ([1]; 504 h): 70%
- pest or weed control at 560 g/ha ([1]; 504 h): 92.5%
- pest or weed control at 280 g/ha ([2]; 168 h): 82.5%
- pest or weed control at 560 g/ha ([2]; 168 h): 87.5%
- pest or weed control at 280 g/ha ([2]; 336 h): 75%
- pest or weed control at 560 g/ha ([2]; 336 h): 89.5%
- pest or weed control at 280 g/ha ([2]; 504 h): 100%
- pest or weed control at 560 g/ha ([2]; 504 h): 100%
- pest or weed control at 280 g/ha ([3]; 168 h): 75%
- pest or weed control at 560 g/ha ([3]; 168 h): 82.5%
- pest or weed control at 280 g/ha ([3]; 336 h): 87.3%
- pest or weed control at 560 g/ha ([3]; 336 h): 94.2%
- pest or weed control at 280 g/ha ([3]; 504 h): 90.2%
- pest or weed control at 560 g/ha ([3]; 504 h): 97.6%
- pest or weed control at 280 g/ha ([4]; 168 h): 60%
- pest or weed control at 560 g/ha ([4]; 168 h): 70%
- pest or weed control at 280 g/ha ([4]; 336 h): 77.5%
- pest or weed control at 560 g/ha ([4]; 336 h): 87.5%
- pest or weed control at 280 g/ha ([4]; 504 h): 92%
- pest or weed control at 560 g/ha ([4]; 504 h): 97.5%
- pest or weed control at 280 g/ha ([5]; 168 h): 75%
- pest or weed control at 560 g/ha ([5]; 168 h): 77.5%
- pest or weed control at 280 g/ha ([5]; 336 h): 94%
- pest or weed control at 560 g/ha ([5]; 336 h): 98%
- pest or weed control at 280 g/ha ([5]; 504 h): 90%
- pest or weed control at 560 g/ha ([5]; 504 h): 99%
